From patent US7521397B2, “Disubstituted pyrazolyl carboxanilides” (Bayer CropScience AG, priority 2002, dated 2009) come the findings set out here.

The nature of data set [1]: logP determination by HPLC on reverse-phase column (EEC Directive 79/831 Annex V.A8). In kind it is physicochemical. The conditions noted are these: reverse-phase C18 HPLC column. Here is the method:
The logP values given in the tables and Preparation Examples above are determined in accordance with EEC Directive 79/831 Annex V.A8 by HPLC (High Performance Liquid Chromatography) on a reverse-phase column (C 18). Temperature: 43° C. In the acidic range, the determination is carried out at pH 2.3 using the mobile phases 0.1% aqueous phosphoric acid and acetonitrile; linear gradient from 10% acetonitrile to 90% acetonitrile. Calibration is carried out using unbranched alkan-2-ones (of 3 to 16 carbon atoms) with known logP values (determination of the logP values by the retention times using linear interpolation between two successive alkanones).

A further data set concerns Venturia inaequalis. Nature of the data set: Venturia test (apple)/protective. The conditions noted are these: topical, 240 h, protective spray, application rate 100 g/ha, evaluation 10 days after inoculation, read-out: Efficacy in %. In kind it is in vivo. Here is the method:
(§1) [table] To produce a suitable preparation of active compound, 1 part by weight of active compound is mixed with the stated amounts of solvent and emulsifier, and the concentrate is diluted with water to the desired concentration. To test for protective activity, young plants are sprayed with the preparation of active compound at the stated application rate. After the spray coating has dried on, the plants are inoculated with an aqueous conidia suspension of the apple scab pathogen Venturia inaequalis and then remain in an incubation cabin at about 20° C. and 100% relative atmospheric humidity for 1 day. The plants are then placed in a greenhouse at about 21° C. and a relative atmospheric humidity of about 90%. Evaluation is carried out 10 days after the inoculation. 0% means an efficacy which corresponds to that of the control, whereas an efficacy of 100% means that no infection is observed.

The next data set has as its system Podosphaera leucotricha. Kind of data set: Podosphaera test (apple)/protective. In kind it is in vivo. The conditions noted are these: topical, 240 h, protective spray, application rate 100 g/ha, evaluation 10 days after inoculation, read-out: Efficacy in %. The procedure:
as §1, with “spore” for “conidia”, “mildew” for “scab”, “Podosphaera leucotricha.” for “Venturia inaequalis and then remain in an incubation cabin at about 20° C. and 100% relative atmospheric humidity for 1 day.”, “23°” for “21°”, “70%.” for “90%.”

The test system of a further data set is Sphaerotheca fuliginea. Nature of the data set: Sphaerotheca test (cucumber)/protective. It counts as in vivo. The conditions noted are these: Podosphaera fuliginea, topical, 168 h, protective spray, application rate 100 g/ha, evaluation 7 days after inoculation, read-out: Efficacy in %. The procedure: as §1, with “aqueous spore” for “aqueous conidia”, “the Sphaerotheca fuliginea.” for “the apple scab pathogen Venturia inaequalis and then remain in an incubation cabin at about 20° C. and 100% relative atmospheric humidity for 1 day.”, “about 23°” for “about 21°”, “about 70%.” for “about 90%.”, “out 7” for “out 10”

For the next data set, the system named is Alternaria solani. Kind of data set: Alternaria test (tomato)/protective. In kind it is in vivo. The conditions noted are these: protective spray, application rate 750 g/ha, evaluation 7 days after inoculation. The procedure: [table] To produce a suitable preparation of active compound, 1 part by weight of active compound is mixed with the stated amounts of solvent and emulsifier, and the concentrated is diluted with water to the desired concentration. To test for protective activity, young tomato plants are sprayed with the preparation of active compound at the stated application rate. 1 day after the treatment, the plants are inoculated with a spore suspension of Alternaria solani and are then kept at 100% relative atmospheric humidity and 20° C. for 24 h. The plants are then kept at 96% relative atmospheric humidity and a temperature of 20° C. Evaluation is carried out 7 days after the inoculation. 0% means an efficacy which corresponds to that of the control, whereas an efficacy of 100% means that no infection is observed.

Where [2] appears, read: pH 2.3, 43° C., preparation examples, read-out: logP (pH 2.3).
Where [3] appears, read: Table 1, 43° C., acidic range pH 2.3, read-out: logP.

Like-named read-outs stand apart in the source and are kept apart here.

For the compound `Nc1ccc(F)cc1-c1ccc(Cl)c(Cl)c1` [Example (III-2), 3′,4′-Dichloro-5-fluoro-1,1′-biphenyl-2-amine], the chromatographic logP in data set [1] (setting [2]) stood at 3.62.
Consider `Cn1cc(C(=O)Nc2c(F)cccc2-c2ccc(Cl)c(Cl)c2)c(C(F)(F)F)n1` [Example 1, N-(3′,4′-dichloro-3-fluoro-1,1′-biphenyl-2-yl)-1-methyl-3-(trifluoromethyl)-1H-pyrazole-4-carboxamide], for which the pest or weed control at 100 g/ha in the data set with Venturia inaequalis, with Podosphaera leucotricha and in the data set with Sphaerotheca fuliginea was 100% throughout. Besides, in data set [1] (setting [2]), the chromatographic logP worked out at 3.1. Also, in the data set on Alternaria solani, the Efficacy in % was found to be 100%.
With `Cn1cc(C(=O)Nc2cc(F)ccc2-c2ccc(Cl)c(Cl)c2)c(C(F)F)n1` [Example 9], the pest or weed control at 100 g/ha with Venturia inaequalis was found to be 99%; in the data set on Podosphaera leucotricha it was 83%; with Sphaerotheca fuliginea it was 94%. In addition, the chromatographic logP in data set [1] (setting [3]) amounted to 3.55.
For `Cn1cc(C(=O)Nc2cc(F)ccc2-c2ccc(F)c(Cl)c2)c(C(F)F)n1` [Example 10], the pest or weed control at 100 g/ha in the data set with Venturia inaequalis, in the data set with Podosphaera leucotricha and in the data set with Sphaerotheca fuliginea was 100% in each case. The chromatographic logP in data set [1] (setting [3]) worked out at 3.29.
As to `Cn1cc(C(=O)Nc2ccc(F)cc2-c2ccc(Cl)c(Cl)c2)c(C(F)(F)F)n1` [Example 5], the pest or weed control at 100 g/ha in the data set with Venturia inaequalis, with Podosphaera leucotricha and with Sphaerotheca fuliginea was 100% throughout. The chromatographic logP in data set [1] (setting [3]) is 3.57. For the same compound, the Efficacy in % with Alternaria solani was found to be 100%.
Take `Cn1cc(C(=O)Nc2cc(F)ccc2-c2ccc(F)c(Cl)c2)c(C(F)(F)F)n1` [Example 4]: the pest or weed control at 100 g/ha came out at 100% in the data set on Venturia inaequalis, 100% in the data set on Podosphaera leucotricha and 99% in the data set on Sphaerotheca fuliginea. For the same compound, the chromatographic logP in data set [1] (setting [3]) was 3.51. The compound also showed an Efficacy in % in the data set with Alternaria solani of 100%.
As to `Nc1c(F)cccc1-c1ccc(Cl)c(Cl)c1` [Example (III-1), 3′,4′-dichloro-3-fluoro-1,1′-biphenyl-2-amine], the chromatographic logP in data set [1] (setting [2]) is 4.09.
On to `Cn1cc(C(=O)Nc2c(F)cccc2-c2ccc(Cl)c(Cl)c2)c(C(F)F)n1` [Example 7], for which the pest or weed control at 100 g/ha with Venturia inaequalis, in the data set on Podosphaera leucotricha and in the data set on Sphaerotheca fuliginea was 100% throughout. Also, the chromatographic logP in data set [1] (setting [3]) came to 3.1.
Consider `Cn1cc(C(=O)Nc2ccc(F)cc2-c2ccc(Cl)c(Cl)c2)c(C(F)F)n1` [Example 11], for which the pest or weed control at 100 g/ha in the data set on Venturia inaequalis, in the data set with Podosphaera leucotricha and with Sphaerotheca fuliginea was 100% in each case. For the same compound, in data set [1] (setting [3]), the chromatographic logP worked out at 3.33.
For `Cn1cc(C(=O)Nc2cc(F)ccc2-c2ccc(Cl)c(Cl)c2)c(C(F)(F)F)n1` [Example 3], the pest or weed control at 100 g/ha in the data set on Venturia inaequalis, in the data set with Podosphaera leucotricha and in the data set with Sphaerotheca fuliginea was 100% throughout. In data set [1] (setting [3]), the chromatographic logP turned out to be 3.75. The Efficacy in % in the data set with Alternaria solani was 100%.
Turning to `Cn1cc(C(=O)Nc2c(F)cccc2Br)c(C(F)(F)F)n1` [Example (IV-1)], the chromatographic logP in data set [1] (setting [2]) amounted to 2.12.
As to `Cn1cc(C(=O)Nc2c(F)cccc2-c2ccc(F)c(Cl)c2)c(C(F)(F)F)n1` [Example 2], the chromatographic logP in data set [1] (setting [2]) was determined as 3.04. In addition, the Efficacy in % in the data set on Alternaria solani turned out to be 100%.
Take `Cn1cc(C(=O)Nc2ccc(F)cc2-c2ccc(F)c(Cl)c2)c(C(F)(F)F)n1` [Example 6]: the pest or weed control at 100 g/ha amounted to 100% with Venturia inaequalis, 100% with Podosphaera leucotricha and 98% with Sphaerotheca fuliginea. In data set [1] (setting [3]), the chromatographic logP is 3.26. This compound yielded an Efficacy in % with Alternaria solani of 100%.
As for `Cn1cc(C(=O)Nc2ccc(F)cc2-c2ccc(F)c(Cl)c2)c(C(F)F)n1` [Example 12], the pest or weed control at 100 g/ha in the data set on Venturia inaequalis, with Podosphaera leucotricha and in the data set with Sphaerotheca fuliginea was 100% throughout. In data set [1] (setting [3]), the chromatographic logP turned out to be 3.07.
